The results in this text go back to US8785637B2, “Carboxamide-substituted dyes for analytical applications” (ATTO-TEC GmbH, priority 2002, dated 2014).

The series in a line: Solubility in water. The format is physicochemical. The settings on record: sugar residue as R5 or/and R6.

Structures are written as SMILES.

Turning to `CCN(CC)c1ccc2c(-c3ccccc3C(=O)N(C)CC(O)C(O)C(O)C(O)CO)c3ccc(=[N+](CC)CC)cc-3oc2c1` (stereo not shown) [Compound 51], the solubility in water result is on record as “high solubility in water”.
